Assay results from patent publication US9358236B2, “Combinations of therapeutic agents for use in the treatment of neurodegenerative diseases” (Novartis AG, priority 2011, dated 2016).
“Also recorded” adds a separate entry of the source.

Legend:
[1] = tested on: DARPP-32; experiment: Striatal degeneration: DARPP-32 intensity in R6/2 brain slices; assay type: cell-based, mouse; conditions: R6/2 slices at DIV21
Description: (§1) Transgenic mice expressing human Huntingtin Exon-1Q200 (R6/2 mouse model described in Davies et al., 1997) were housed in a temperature-controlled room and maintained on a 12 hr light/dark cycle. Food and water were available ad libitum and experiments were carried out in accordance with the local authorization guidelines for the care and use of laboratory animals. Slice cultures were established according to the procedure described by Stoppini and colleagues (Stoppini et al., 1991 and Gogolla et al., 2006) and a particular cutting angle was utilized to produce brain slices with a preserved cortico-striatal pathway. Finally, slices were selected, placed on Millicel (Millipore, PICM03050) and cultured in 6-well dishes at 35° C. and 5% CO2 in the presence of 1 ml of culture medium.
(§2) Slices were treated with different mTOR inhibitors from DIV14 to DIV21. The culture medium was exchanged every second day, and drugs were added in the fresh culture medium. […]
(§3) High resolution images were acquired on an upright Zeiss LSM700 confocal microscope, using a Plan-Neofluar 40×/1.3 oil immersion objective. For the quantification of the PolyQ density and DARPP-32/NeuF signal intensity, at least three confocal 3D stacks/slice were acquired in striatum for each experiment (five slices per condition), and analyzed using Imaris 4.2 (Bitplane AG) and Image J softwares.
(§4) All data are expressed as mean±SEM. […]

[2] = tested on: neurofilament; experiment: Striatal degeneration: neurofilament intensity in R6/2 brain slices; assay type: cell-based, mouse; conditions: R6/2 slices at DIV21
Description: as §1, §2, §3, §4

[3] = molecular target: mTOR (Homo sapiens, UniProt P42345); conditions: low concentration; Serra et al., 2008; cited from earlier work
[4] = tested on: LC3-II/I conversion; experiment: Autophagy induction (LC3-II/I conversion) by Western blot in R6/2 brain slices; assay type: cell-based; conditions: R6/2 slices treated DIV14 to DIV21, analysed at DIV21
Description: as §1
Slices were treated with different mTOR inhibitors from DIV14 to DIV21. The culture medium was exchanged every second day, and drugs were added in the fresh culture medium. We used this protocol to evaluate the action of the following mTOR inhibitors: BEZ235 (50 and 300 nM in DMSO), RAD001 (250 nM in DMSO), CCG168 (300 nM in DMSO), RAD001+BEZ235 (250 10, 250 30 and 250 50 nM in DMSO) and RAD001'CCG168 (250 and 50 nM in DMSO).
Slices were washed in PBS and lysed in 1% Triton X-100/PBS containing Complete Mini (Roche, #04693124001) and PhosSTOP (Roche, #04906837001). Lysates were ultrasonicated and analysed by Western blotting for B-actin (Sigma, #A5441), pS6 Ser 240/244 (Cell Signalling, #2215), and LC3B (Cell Signalling, #2775). Immunoblots were developed with ECL detection reagent (Amersham Biosciences).

[5] = tested on: p-S6 S240/244; experiment: mTORC1 activity (p-S6 S240/244) by Western blot in R6/2 brain slices; assay type: cell-based, mouse; conditions: R6/2 slices treated DIV14 to DIV21, analysed at DIV21
[6] = tested on: PI3K/mTOR; conditions: relatively higher concentrations; Serra et al., 2008; cited from earlier work
[7] = tested on: polyQ inclusions; experiment: polyQ density by immunohistochemistry in R6/2 brain slices; assay type: cell-based, mouse; conditions: R6/2 slices at DIV21, vs control R6/2
Description: as §1, §2, §3, §4

[8] = single low-concentration (50 nM)
[9] = single low-concentration (250 nM)

Cn1c(=O)n(-c2ccc(C(C)(C)C#N)cc2)c2c3cc(-c4cnc5ccccc5c4)ccc3ncc21 [BEZ235, 2-methyl-2-[4-(3-methyl-2-oxo-8-quinolin-3-yl-2,3-dihydro-imidazo[4,5-c]quinolin-1-yl)-phenyl]-propionitrile]
preservation of DARPP-32 level [1, 8]: ineffective
preservation of neurofilament level [2, 8]: ineffective
concentration at which mTOR inhibition predominates [3]: less than 100 nmol/L
LC3-II/I conversion (autophagy induction) ([4]; 50 nM): no effect
LC3-II/I conversion (autophagy induction) ([4]; 300 nM): induced autophagy; also recorded: reached similar efficacy
p-S6 S240/244 level ([5]; 50 nM): did not reduce
concentration giving dual PI3K/mTOR inhibition [6]: approximately 500 nmol/L
polyQ density ([7]; 50 nM): no effect

COc1ccc(-c2ccc3c(N4CCOC[C@@H]4C)nc(N4CCOC[C@@H]4C)nc3n2)cc1CO [CCG168, {5-[2,4-bis-((S)-3-methyl-morpholin-4-yl)-pyrido[2,3d]pyrimidin-7-yl]-2-methoxy-phenyl}-methanol]
LC3-II/I conversion (autophagy induction) ([4]; 300 nM): induced autophagy; also recorded: reached similar efficacy

CO[C@H]1C[C@@H]2CC[C@@H](C)[C@@](O)(O2)C(=O)C(=O)N2CCCC[C@H]2C(=O)O[C@H]([C@H](C)C[C@@H]2CC[C@@H](OCCO)[C@H](OC)C2)CC(=O)[C@H](C)/C=C(\C)[C@@H](O)[C@@H](OC)C(=O)[C@H](C)C[C@H](C)/C=C/C=C/C=C/1C [RAD001, (1R,9S,12S,15R,16E,18R,19R,21R,23S,24E,26E,28E,30S,32S,35R)-1,18-dihydroxy-12-{(1R)-2-[(1S,3R,4R)-4-(2-hydroxyethoxy)-3-methoxycyclohexyl]-1-methylethyl}-19,30-dimethoxy-15,17,21,23,29,35-hexamethyl-11,36-dioxa-4-aza-tricyclo[30.3.1.0^4,9]hexatriaconta-16,24,26,28-tetraene-2,3,10,14,20-pentaone]
preservation of DARPP-32 level [1, 9]: ineffective
preservation of neurofilament level [2, 9]: ineffective
LC3-II/I conversion (autophagy induction) ([4]; 250 nM): no effect
p-S6 S240/244 level ([5]; 250 nM): reduced
polyQ density ([7]; 250 nM): no effect
